These results are taken from ChEMBL document CHEMBL1152602, “A new therapeutic approach in Parkinson's disease: some novel quinazoline derivatives as dual selective phosphodiesterase 1 inhibitors and anti-inflammatory agents” (Bioorg Med Chem, 2009).

Data set [1] in a line: Inhibition of PDE1.
Data set [2] relates to Rattus norvegicus. As to the kind of experiment: Antiinflammatory activity in Sprague-Dawley rat assessed as inhibition of carrageenan-induced paw edema at 50 mg/kg, ip treated 60 mins before carrageenan challenge measured after 90 mins. The data set is classed as functional. The note with it: route intraperitoneal. (The carrageenan paw model is a standard test of acute inflammation.)

Data set [3] has as its system Rattus norvegicus. The data set is described as follows: Antiinflammatory activity in Sprague-Dawley rat assessed as inhibition of carrageenan-induced paw edema at 50 mg/kg, po treated 60 mins before carrageenan challenge measured after 180 mins. Format: functional.
Data set [4] concerns Rattus norvegicus. As to the kind of experiment: Antiinflammatory activity in Sprague-Dawley rat assessed as inhibition of carrageenan-induced paw edema at 50 mg/kg, ip treated 60 mins before carrageenan challenge measured after 180 mins. The data set is classed as functional. The note with it: route intraperitoneal.
In data set [5] the test system is Rattus norvegicus. As to the kind of experiment: Antiinflammatory activity in Sprague-Dawley rat assessed as inhibition of carrageenan-induced paw edema at 50 mg/kg, po treated 60 mins before carrageenan challenge measured after 90 mins. The data set is classed as functional.
Data set [6] concerns Rattus norvegicus. The data set is described as follows: Toxicity in Sprague-Dawley rat assessed as gastrointestinal ulceration at 200 mg/kg, po once daily for 5 days. The data set is classed as organism-based. Further details: dose 200 mg/kg, route oral. The note with it: in vivo, 120 h.

On to `COc1ccc(-c2csc3ncn4c(=O)c5ccccc5nc4c23)cc1`, for which, in data set [1], the IC50 (commonly the concentration that inhibits the measured activity by half) was 66.9 µM. For the same compound, the inhibition in vivo – broadly, the share of the control response that was lost under treatment – at 50 mg/kg in data set [2] came out at 69%; in data set [3], 71%; in data set [4], 74%; in data set [5] it was 57%. For the same compound, the Activity entry in data set [6] was “Non-toxic”.

On to `O=c1c2cc(Br)ccc2nc2c3c(-c4ccccc4)cc(-c4ccc(Cl)cc4)nc3ncn12`, for which the IC50 in data set [1] turned out to be 95.1 µM. In addition, the inhibition in vivo at 50 mg/kg came out at 69% in data set [2], 77% in data set [3], 80% in data set [4] and 67% in data set [5]. Also, the Activity entry in data set [6] is “Non-toxic”.

As for `COc1ccc(-c2cc(-c3ccccc3)nc3ncn4c(=O)c5cc(Br)cc(Br)c5nc4c23)cc1`, 33.7 µM corresponded to half-maximal inhibition in data set [1] (IC50). Also, the inhibition in vivo at 50 mg/kg in data set [2] stood at 78%; in data set [3], 82%; in data set [4], 86%; in data set [5], 76%. The Activity entry in data set [6] is reported as “Non-toxic”.

In data set [1], `O=c1c2cc(Br)cc(Br)c2nc2c3c(-c4ccc(Cl)cc4)csc3ncn12` displayed an IC50 of 83.5 µM. The inhibition in vivo at 50 mg/kg in data set [2] came out at 2%; in data set [3], 10%; in data set [4], 17%; in data set [5], 2%.

`Cc1ccc(-c2cc(-c3ccccc3)nc3ncn4c(=O)c5cc(Br)cc(Br)c5nc4c23)cc1` displayed an IC50 in data set [1] of 52.4 µM. Also, the inhibition in vivo at 50 mg/kg in data set [2] worked out at 62%; in data set [3], 70%; in data set [4] it was 72%; in data set [5], 59%. The Activity result in data set [6] was “Non-toxic”.

Compound `Cc1sc2ncn3c(=O)c4cc(Br)cc(Br)c4nc3c2c1C` showed an IC50 in data set [1] of 95.7 µM. Moreover, the inhibition in vivo at 50 mg/kg in data set [2] came to 11%; in data set [3], 22%; in data set [4] it was 27%; in data set [5], 10%.

The compound `O=c1c2cc(Br)cc(Br)c2nc2c3c4c(sc3ncn12)CCCC4` had an IC50 in data set [1] of 104 µM. The inhibition in vivo at 50 mg/kg in data set [2] worked out at 4%; in data set [3], 15%; in data set [4] it was 21%; in data set [5], 5%.

On to `O=c1c2ccccc2nc2c3c(-c4ccc(Cl)cc4)csc3ncn12`, for which the midpoint of inhibition in data set [1], the IC50, lay at 124 µM. Besides, the inhibition in vivo at 50 mg/kg was 42% in data set [2], 53% in data set [3], 57% in data set [4] and 37% in data set [5]. The Activity entry in data set [6] is “Non-toxic”.

As to `O=c1c2ccccc2nc2c3c4c(sc3ncn12)CCCC4`, the IC50 in data set [1] came to 228 µM. Further, the inhibition in vivo at 50 mg/kg turned out to be 71% in data set [2], 75% in data set [3], 81% in data set [4] and 70% in data set [5]. Also, in data set [6], the Activity result is “Non-toxic”.

Compound `COc1ccc(-c2cc(-c3cccc([N+](=O)[O-])c3)c3c(ncn4c(=O)c5cc(Br)cc(Br)c5nc34)n2)cc1` registered an IC50 in data set [1] of 72 µM. Also, the inhibition in vivo at 50 mg/kg in data set [2] turned out to be 68%; in data set [3], 74%; in data set [4], 78%; in data set [5], 65%. Also, the Activity entry in data set [6] is listed as “Non-toxic”.

With `Cc1ccc(-c2csc3ncn4c(=O)c5ccccc5nc4c23)cc1`, half-maximal inhibition in data set [1] (IC50) required 230 µM. Besides, the inhibition in vivo at 50 mg/kg in data set [2] is 51%; in data set [3] it was 62%; in data set [4], 68%; in data set [5] it was 48%. The Activity result in data set [6] was “Non-toxic”.

The compound `Cc1ccc(-c2cc(-c3ccccc3)nc3ncn4c(=O)c5cc(Br)ccc5nc4c23)cc1` registered an IC50 in data set [1] of 78.1 µM. Also, the inhibition in vivo at 50 mg/kg in data set [2] stood at 60%; in data set [3], 68%; in data set [4], 70%; in data set [5], 57%. The Activity result in data set [6] is on record as “Non-toxic”.

`Cc1sc2ncn3c(=O)c4ccccc4nc3c2c1C` yielded an IC50 in data set [1] of 295 µM. Also, the inhibition in vivo at 50 mg/kg stood at 76% in data set [2], 84% in data set [3], 86% in data set [4] and 74% in data set [5]. For the same compound, the Activity entry in data set [6] is “Non-toxic”.

Turning to `COc1ccc2c(c1)c(CC(=O)O)c(C)n2C(=O)c1ccc(Cl)cc1` [INDOMETHACIN], the inhibition in vivo at 50 mg/kg in data set [2] is 76%; in data set [3], 79%; in data set [4], 83%; in data set [5], 72%. The Activity entry in data set [6] is reported as “Toxic”.
